# Values of other authors, collected in patent publication US7071293B1, “Alpha helical peptides with broad spectrum antimicrobial activity that are insensitive to salt” (priority 1999, dated 2006).
# Several values for one entry are separate records, joined by “and”; a condition that tells them apart may be missing. Equal values may be shown once. Read-outs that look alike come from different tables or passages of the source.
# Assays:
# [1] = test system: Haemophilus influenzae; conditions: cited from earlier work; for MIC50 / MIC90: in µg/mL; for Range: MIC range
# [2] = test system: Bordetella bronchiseptica; conditions: cited from earlier work
# [3] = test system: Bacteroides fragilis; conditions: cited from earlier work
# [4] = test system: Bacillus spp.; conditions: cited from earlier work
# [5] = test system: Branhamella (Moraxella) catarrhalis; conditions: MIC range; Branhamella (Moraxella) catarrhalis (β-lactamase producer); cited from earlier work
# [6] = test system: Enterococcus spp.; conditions: cited from earlier work
# [7] = test system: Streptococcus agalactiae; conditions: cited from earlier work
# [8] = test system: Neisseria meningitidis; conditions: cited from earlier work
# [9] = test system: Campylobacter jejuni; conditions: cited from earlier work
# [10] = test system: Neisseria gonorrhoeae; conditions: cited from earlier work; for MIC90: in µg/mL
# [11] = test system: Enterococcus faecium; conditions: cited from earlier work
# [12] = test system: Staphylococcus aureus; conditions: cited from earlier work
# [13] = test system: Haemophilus ducreyi; conditions: cited from earlier work
# [14] = test system: Streptococcus pyogenes; conditions: in µg/mL; cited from earlier work
# [15] = test system: Listeria monocytogenes; conditions: cited from earlier work
# [16] = test system: Haemophilus parainfluenzae; conditions: cited from earlier work
# [17] = test system: Borrelia burgdorferi; conditions: cited from earlier work
# [18] = test system: Streptococcus pneumoniae; conditions: cited from earlier work
# [19] = test system: Streptococcus spp.; conditions: cited from earlier work
# [20] = test system: Campylobacter pylori; conditions: cited from earlier work
# [21] = Haemophilus influenzae (non β-lactamase producer)
# [22] = Haemophilus influenzae (penicillin resistant)
# [23] = Haemophilus influenzae (penicillin susceptible)
# [24] = Haemophilus influenzae (β-lactamase producer)
# [25] = Staphylococcus aureus (penicillin susceptible)
compound,measurement,setting,value
"CC[C@H]1OC(=O)[C@H](C)[C@@H](O[C@H]2C[C@@](C)(OC)[C@@H](O)[C@H](C)O2)[C@H](C)[C@@H](O[C@@H]2O[C@H](C)C[C@H](N(C)C)[C@H]2O)[C@](C)(O)C[C@@H](C)C(=O)[C@H](C)[C@@H](O)[C@]1(C)O [ERYTHROMYCIN, erythromycin]",MIC50,[1]; [21],2 and 4
same,MIC90,[1]; [21],4 and 8
same,MIC50,[1]; [22],8
same,MIC90,[1]; [22],16
same,MIC50,[1]; [23],8
same,MIC90,[1]; [23],16
same,MIC50,[1]; [24],4 and 2
same,MIC90,[1]; [24],8 and 4
same,MIC50,[1]; Haemophilus influenzae,2 and 1
same,MIC90,[1]; Haemophilus influenzae,2 and 4
same,Range,[1]; [22],8–16
same,Range,[1]; [23],0.25–16
same,Range,[1]; Haemophilus influenzae,0.5–8
same,Range,[2]; MIC range,4–32
same,MIC50,[2],8 µg/mL
same,MIC90,[2],32 µg/mL
same,Range,[3]; MIC range,0.25–16
same,MIC50,[3],1 µg/mL
same,MIC90,[3],8 µg/mL
same,Range,[4]; MIC range,0.03–2
same,MIC90,[4],2 µg/mL
same,Range,[5],0.06–1 and 0.03–0.25 and 0.06–8
same,MIC50,[6],2 µg/mL
same,Range,[7]; MIC range,0.03–0.25 and 0.015–0.06
same,MIC50,[7],0.03 µg/mL
same,MIC90,[7],0.03 µg/mL
same,Range,[8]; MIC range,0.5–8
same,MIC50,[8],1 µg/mL
same,MIC90,[8],8 µg/mL
same,Range,[9]; MIC range,0.5–8
same,MIC90,[9]; in µg/mL,4 and 2
same,Range,"[10]; MIC range, Neisseria gonorrhoeae (non β-lactamase producer)",0.015–4 and 0.03–2
same,MIC90,[10]; Neisseria gonorrhoeae (non β-lactamase producer),2 and 1
same,MIC90,[10]; Neisseria gonorrhoeae (β-lactamase producer),2 and 4
same,MIC90,[10]; Neisseria gonorrhoeae,1
same,MIC50,[11],1 µg/mL
same,MIC50,[12]; Staphylococcus aureus (methicillin susceptible),0.5 µg/mL
same,MIC50,[12]; [25],0.5 µg/mL
same,MIC90,[12]; [25],0.5 µg/mL
same,MIC50,[12]; Staphylococcus aureus,0.5 µg/mL
same,MIC50,[13],0.004 µg/mL
same,MIC90,[13],0.06 µg/mL
same,MIC50,[14],0.06 and 0.03
same,MIC50,[15],0.5 µg/mL
same,Range,[16]; MIC range,0.5–8
same,MIC50,[16],2 µg/mL
same,MIC90,[16],4 µg/mL
same,MIC50,[17],0.03 µg/mL
same,MIC90,[17],0.06 µg/mL
same,Range,[18]; MIC range,0.03–0.25 and 0.015–0.06 and 0.015–0.25
same,MIC50,[18]; in µg/mL,0.06 and 0.03
same,MIC90,[18]; in µg/mL,0.03 and 0.06
same,MIC50,[19],0.03 µg/mL
same,Range,[20]; MIC range,0.25–16
same,MIC50,[20],0.5 µg/mL
